Assay results taken from ChEMBL document CHEMBL4177717, “7-Methylguanosine monophosphate analogues with 5'-(1,2,3-triazoyl) moiety: Synthesis and evaluation as the inhibitors of cNIIIB nucleotidase” (Bioorg Med Chem, 2018).
Activity calls are given as the source filed them. The calls are words filed in the database; no cut-off is given here.

B1: 7-methylguanosine phosphate-specific 5'-nucleotidase (Homo sapiens), Q969T7 (protein)
chain: MAEEVSTLMKATVLMRQPGRVQEIVGALRKGGGDRLQVISDFDMTLSRFAYNGKRCPSSYNILDNSKIISEECRKELTALLHHYYPIEIDPHRTVKEKLPHMVEWWTKAHNLLCQQKIQKFQIAQVVRESNAMLREGYKTFFNTLYHNNIPLFIFSAGIGDILEEIIRQMKVFHPNIHIVSNYMDFNEDGFLQGFKGQLIHTYNKNSSACENSGYFQQLEGKTNVILLGDSIGDLTMADGVPGVQNILKIGFLNDKVEERRERYMDSYDIVLEKDETLDVVNGLLQHILCQGVQLEMQGP

Key:
m7GpppX diphosphatase = target: T1, m7GpppX diphosphatase (Homo sapiens, UniProt Q96C86); test: Inhibition of human DCPS using m7GMPF as substrate after 30 mins by nucleoside 5'-fluorophosphate probe based HTS assay
T1 sequence (Q96C86 whole entry): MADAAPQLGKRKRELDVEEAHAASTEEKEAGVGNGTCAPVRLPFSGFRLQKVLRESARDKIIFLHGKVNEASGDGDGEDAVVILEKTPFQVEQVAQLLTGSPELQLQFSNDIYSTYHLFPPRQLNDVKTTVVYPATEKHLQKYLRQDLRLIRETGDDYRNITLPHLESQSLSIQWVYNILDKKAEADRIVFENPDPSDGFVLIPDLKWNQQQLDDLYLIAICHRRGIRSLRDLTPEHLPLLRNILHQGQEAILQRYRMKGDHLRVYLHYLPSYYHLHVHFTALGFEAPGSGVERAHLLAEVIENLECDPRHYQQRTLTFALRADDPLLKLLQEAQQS

[1] = target: T2, 7-methylguanosine phosphate-specific 5'-nucleotidase (Homo sapiens) (UniProt Q969T7); test: Substrate activity at recombinant His6/SUMO-tagged human cN3B (1 to 300 residues) expressed in Escherichia coli BL21(DE3) RIL assessed as compound dephosphorylation at 100 uM up to 150 mins by HPLC method
T2 sequence (whole entry): B1 chain

[2] = target: T2, 7-methylguanosine phosphate-specific 5'-nucleotidase (Homo sapiens); test: Activation of recombinant His6/SUMO-tagged human cN3B (1 to 300 residues) expressed in Escherichia coli BL21(DE3) RIL assessed as increase in dephosphorylation of m7GMP substrate at 200 uM after 45 mins by HPLC method
[3] = target: T2, 7-methylguanosine phosphate-specific 5'-nucleotidase (Homo sapiens); test: Inhibition of recombinant His6/SUMO-tagged human cN3B (1 to 300 residues) expressed in Escherichia coli BL21(DE3) RIL assessed as reduction in dephosphorylation of m7GMP substrate at 200 uM after 45 mins by malachite green dye based assay relative to control
[4] = Chemical stability of the compound in pH >8 solution at 100 uM after 24 hrs by RP-HPLC analysis; type: physicochemical
[5] = target: T2, 7-methylguanosine phosphate-specific 5'-nucleotidase (Homo sapiens); test: Activation of recombinant His6/SUMO-tagged human cN3B (1 to 300 residues) expressed in Escherichia coli BL21(DE3) RIL assessed as increase in dephosphorylation of m7GMP substrate at 100 uM after 45 mins by malachite green dye based assay
[6] = Chemical stability of the compound in pH 6 to 8 PBS at 100 uM after 24 hrs by RP-HPLC analysis; type: physicochemical; details: buffer, pH 6, 24 h
[7] = target: T2, 7-methylguanosine phosphate-specific 5'-nucleotidase (Homo sapiens); test: Inhibition of recombinant His6/SUMO-tagged human cN3B (1 to 300 residues) expressed in Escherichia coli BL21(DE3) RIL assessed as reduction in dephosphorylation of m7GMP substrate at 200 uM after 45 mins by HPLC method relative to control
[8] = target: T3, 7-methylguanosine phosphate-specific 5'-nucleotidase (Homo sapiens, UniProt Q969T7); test: Inhibition of recombinant His6/SUMO-tagged human cN3B (1 to 300 residues) expressed in Escherichia coli BL21(DE3) RIL assessed as reduction in dephosphorylation of m7GMP substrate after 45 mins by HPLC method
T3 sequence (Q969T7 whole entry): B1 chain

[9] = target: Eukaryotic translation initiation factor 4E (Homo sapiens, UniProt P06730); test: Inhibition of eIF4E (unknown origin)
[10] = target: T3, 7-methylguanosine phosphate-specific 5'-nucleotidase; test: Inhibition of recombinant His6/SUMO-tagged human cN3B (1 to 300 residues) expressed in Escherichia coli BL21(DE3) RIL assessed as reduction in dephosphorylation of m7GMP substrate after 45 mins by malachite green dye based assay
[11] = target: Eukaryotic translation initiation factor 4E (Mus musculus, UniProt P63073); test: Inhibition of fluorescein-labeled m7GDPC4H5 binding to mouse eIF4E (28 to 217 residues) by MST method; details: read-out: Kd(app)
Homo sapiens = species: Homo sapiens; test: Selectivity ratio of IC50 for human DCPS to IC50 for recombinant His6/SUMO-tagged human cN3B (1 to 300 residues) expressed in Escherichia coli BL21(DE3) RIL
[12] = target: T2, 7-methylguanosine phosphate-specific 5'-nucleotidase (Homo sapiens); test: Inhibition of recombinant His6/SUMO-tagged human cN3B (1 to 300 residues) expressed in Escherichia coli BL21(DE3) RIL assessed as reduction in conversion of m7GMP to m7Guo at 200 uM after 45 mins in presence of human DCPS by HPLC method
[13] = target: T4, m7GpppX diphosphatase (Homo sapiens) (UniProt Q96C86); test: Inhibition of human DCPS using m7GMPF assessed as reduction in conversion of m7GpppG to GDP at 200 uM after 45 mins in presence of human cN3B by HPLC method
T4 sequence (whole entry): T1 sequence (Q96C86 whole entry)

[14] = substrate: C[n+]1cn([C@@H]2O[C@H](Cn3cc(OCP(=O)([O-])O)nn3)[C@@H](O)[C@H]2O)c2nc(N)[nH]c(=O)c21; test: Substrate activity at recombinant His6/SUMO-tagged human cN3B (1 to 300 residues) expressed in Escherichia coli BL21(DE3) RIL assessed as compound dephosphorylation up to 30 mins by malachite green dye based assay
[15] = substrate: C[n+]1cn([C@@H]2O[C@H](Cn3cc(OCP(=O)([O-])O)nn3)[C@@H](O)[C@H]2O)c2nc(N)[nH]c(=O)c21; test: Substrate activity at recombinant His6/SUMO-tagged human cN3B (1 to 300 residues) expressed in Escherichia coli BL21(DE3) RIL assessed as compound dephosphorylation by measuring ratio of Kcat to Km up to 30 mins by malachite green dye based assay
[16] = substrate: C[n+]1cn([C@@H]2O[C@H](Cn3cc(OCP(=O)([O-])O)nn3)[C@@H](O)[C@H]2O)c2nc(N)[nH]c(=O)c21; test: Substrate activity at recombinant His6/SUMO-tagged human cN3B (1 to 300 residues) expressed in Escherichia coli BL21(DE3) RIL assessed as compound dephosphorylation by Vmax up to 30 mins by malachite green dye based assay
[17] = substrate: C[n+]1cn([C@@H]2O[C@H](Cn3cc(OCP(=O)([O-])O)nn3)[C@@H](O)[C@H]2O)c2nc(N)[nH]c(=O)c21; test: Substrate activity at recombinant His6/SUMO-tagged human cN3B (1 to 300 residues) expressed in Escherichia coli BL21(DE3) RIL assessed as compound dephosphorylation by Kcat up to 30 mins by malachite green dye based assay

Chain of Eukaryotic translation initiation factor 4E (Mus musculus, UniProt P63073) (P63073 whole entry, the tested form may be a part): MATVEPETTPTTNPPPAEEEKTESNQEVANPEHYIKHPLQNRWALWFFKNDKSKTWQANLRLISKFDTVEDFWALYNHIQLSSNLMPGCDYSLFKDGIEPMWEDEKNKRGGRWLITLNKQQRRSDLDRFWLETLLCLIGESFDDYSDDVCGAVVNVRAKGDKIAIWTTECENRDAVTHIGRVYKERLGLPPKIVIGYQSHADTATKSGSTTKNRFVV
Chain of Eukaryotic translation initiation factor 4E (Homo sapiens, UniProt P06730) (P06730 whole entry, the tested form may be a part): as the sequence (P63073 whole entry, the tested form may be a part) above, with T12P, P16T, A17T, D174E counted along it

Molecule | IC50 (m7GpppX diphosphatase) | Activity [1] | inhibition [3] | Stability [4] | Activity [5] | Stability [6] | inhibition [7] | further results
C[n+]1cn([C@@H]2O[C@H](COP(=O)([O-])O)[C@@H](O)[C@H]2O)c2nc(N)[nH]c(=O)c21 | 42.2 µM | Active | – | – | – | – | – | –
C[n+]1cn([C@@H]2O[C@H](Cn3cc(CCP(=O)([O-])O)nn3)[C@@H](O)[C@H]2O)c2nc(N)[nH]c(=O)c21 | – | inactive | inactive | Unstable | inactive | Stable | inactive | Activity [2]: inactive
C[n+]1cn([C@@H]2O[C@H](Cn3cc(CP(=O)([O-])O)nn3)[C@@H](O)[C@H]2O)c2nc(N)[nH]c(=O)c21 | – | inactive | inactive | Unstable | inactive | Stable | inactive | Activity [2]: inactive
C[n+]1cn([C@@H]2O[C@H](Cn3cc(P(=O)([O-])O)nn3)[C@@H](O)[C@H]2O)c2nc(N)[nH]c(=O)c21 | 244 µM | inactive | 51% | Unstable | – | Stable | 67% | IC50 [8]: 87.8 µM; Ki [9]: 382 µM; IC50 [10]: 128 µM; Kd [11]: 5.9 µM; Ratio IC50 (Homo sapiens): 3; inhibition [12]: Active; inhibition [13]: inactive
C[n+]1cn([C@@H]2O[C@H](Cn3cc(OCP(=O)([O-])O)nn3)[C@@H](O)[C@H]2O)c2nc(N)[nH]c(=O)c21 | – | Active | – | Unstable | Active | Stable | inactive | –
C[n+]1cn([C@@H]2O[C@H](COP(=O)([O-])OP(=O)(O)O)[C@@H](O)[C@H]2O)c2nc(N)[nH]c(=O)c21 | 1.8 µM | – | – | – | – | – | – | –
B1 | – | – | – | – | – | – | – | Km [14]: 82 µM; kcat/Km [15]: 11000 M⁻¹ s⁻¹; Vmax [16]: 1.6 µmol/min/mg; kcat [17]: 1.16 s⁻¹
